This note sets out measurements from a melting point compilation (Tetko et al.; mined from patent text by program, amines drawn as free bases though some values may be those of a salt).

By melting point is commonly meant the temperature of the solid-liquid transition. `CC(C)(C)CCc1ccc(C(=O)NNS(=O)(=O)c2ccccc2)cc1` displayed a melting point of 168 to 169 °C.

Take `COc1c(Br)ccc2oc(C=O)c(C)c12`: the melting point lay in the range of 81 to 82 °C.

With `Cc1cc(Cl)cnc1N`, the melting point was 63 to 64 °C.

In turn, `O=C1c2c(O)ccc(O)c2C(=O)c2c(NCCN3CCOCC3)ccc(NCCN3CCOCC3)c21` showed a melting point of 241 to 243 °C.

With `CNC(=O)C(Cc1c[nH]c2ccccc12)NC(=O)C(C)(CC(C)C)c1ccc(Cl)cc1S` (stereo not drawn), the melting point was in the range of 75 to 78 °C.

The compound `FC(F)(F)c1ccc(-c2cc(Oc3cccc4ccncc34)ncn2)cc1` had a melting point of 194 to 195 °C.

With `CCCCC1COC(=S)N1` (stereo not drawn), the melting point is 71 to 72 °C.

In the case of `CC1(C)CC(=O)Nc2cc3nc(-c4ccc(S(=O)(=O)O)cc4)[nH]c3cc21`, the melting point was over 300 °C.

As to `CCOC(=O)CCC1CCCC2CCC(=O)NC21` (stereo not drawn), the melting point lay within 45 to 50 °C.

The compound `Nc1ccc(C(=O)NC2CCN(CCCn3cnc4c(N)ncnc43)CC2)cc1` yielded a melting point of 247 to 248 °C.

In turn, `O=S(=O)(Cc1nnc(-c2ccc3c(c2)CCO3)o1)c1cccc(F)c1` returned a melting point of 93 to 94 °C.

As for `CC(=O)OCc1c(-c2cc(Nc3cc4n(n3)CCN(C3COC3)C4)c(=O)n(C)n2)cccc1-n1ncc2cc(C(C)(C)C)cc(F)c2c1=O`, the melting point was 180 to 185 °C.

In turn, `CCCN(CCC)C(=O)C(CCC(=O)NC)NC(=O)C=Cc1ccco1` (stereo not drawn) displayed a melting point of 112 to 113 °C.

Compound `Cc1cnc2c(=O)[nH]c3cc(Cl)c(Cl)cc3n12` had a melting point of over 300 °C.

`COc1c2c(nc3ccccc13)CCN(Cc1ccccc1)CC2` gave a melting point of under 20 °C.

Turning to `O=C(OCc1ccc(-c2ccc(N3C[C@H](Cn4ccnn4)OC3=O)cc2F)cn1)N1CCOCC1`, the melting point was 131 to 133 °C.

In the case of `Cc1ncc([N+](=O)[O-])n1CCN1C(=O)C2CC=CCC2C1=O` (stereo not drawn), the melting point was in the range of 118 to 123 °C.

Regarding `Cc1c(SCc2cccs2)ccnc1CSc1nc2ccccc2[nH]1`, the melting point fell in the range of 131 to 133 °C.

Regarding `CCC(=NOC)c1cc(I)c(O)c(CN)c1`, the melting point lay in the range of 156 to 157 °C.

In the case of `CC(C)Nc1cccnc1N1CCN(C(=O)c2ccc(C(=O)NCCCO)cc2)CC1`, the melting point lay within 110 to 111 °C.

As to `COc1cccc2c(=O)n(/C=C/C(=O)O)cnc12`, the melting point lay in the range of 289 to 291 °C.

`O=S(=O)(Nc1cccc(F)c1)c1cc(S(=O)(=O)Nc2cccc(F)c2)c2cc(O)ccc2c1`: the melting point lay in the range of 110 to 112 °C.

As for `CCCc1oc(-c2ccccc2)nc1COc1ccc(COc2cccc(CC(=O)O)c2)cc1`, the melting point is 115 to 116 °C.

Take `O=S1(=O)c2cccc3cccc(c23)N1CCCN1CCN(c2ccc(O)cc2)CC1`: the melting point came to 185 °C.

In turn, `Cc1cc(Oc2ccc(S(C)(=O)=O)c(S(F)(F)(F)(F)F)c2)c(S(C)(=O)=O)cc1C(=O)NC(=N)N` showed a melting point of 275 °C.

Regarding `Cc1cc(-c2ccc(C(=O)O)cc2)ccn1`, the melting point was in the range of 293 to 294 °C.

In turn, `O=C(NC(=O)c1c(F)cccc1Cl)Nc1ccc(Br)cn1` had a melting point of 207 to 213 °C.

`O=C(Cn1c(-c2ccc(F)cc2)ncc(NC(=O)OCc2ccccc2)c1=O)NC(Cc1ccccc1)C(=O)C(F)(F)F` (stereo not drawn) displayed a melting point of 103 to 107 °C.

Compound `CCNNc1nc(C)c(C(=O)OCC)c(Cl)c1[N+](=O)[O-]` registered a melting point of 117 to 120 °C.

Take `O=c1ccc(S(=O)(=O)c2cc3cc(Cl)cc(Cl)c3[nH]2)n[nH]1`: the melting point was over 250 °C.

For the compound `CN1CC(CN(CCC#N)C(N)=O)CC2c3cccc4[nH]cc(c34)CC21` (stereo not drawn), the melting point was 252 to 254 °C.

Consider `CCC(CC)Nc1nc(C)nc(Oc2c(C)cc(C)cc2C)c1N`, for which the melting point is 248 to 250 °C.

`Cc1ccccc1P(=O)(O)c1ccccc1C` displayed a melting point of 174 to 175 °C.

The compound `CN1CCn2c1nc(N1CCc3ccccc3CC1)c(C#N)c2=O` had a melting point of 174 to 177 °C.

Consider `CN1CCC(c2c[nH]c3ccc(C(=O)c4ccc(F)cc4)cc23)CC1`, for which the melting point came to 89 °C.

`O=C(O)CN(C(=O)CCS)[C@H]1CC[C@H](c2ccccc2)CC1` displayed a melting point of 125 to 130 °C.

With `CCOCCOc1ccc(-c2ccc3c(c2)C=C(C(=O)Nc2ccc(CN(C)C4CCOCC4)cc2)CCS3(=O)=O)cc1OCCOCC`, the melting point fell in the range of 150 to 151 °C.

In the case of `CC(C)Cc1cc(C(=O)NCCc2ccncc2)ccc1OCc1ccc(F)cc1`, the melting point worked out at 112 °C.

With `CC(=O)Nc1cccc2ccc(O)cc12`, the melting point was in the range of 161 to 162 °C.

Compound `CCOC(=O)c1cc(C(=O)c2cccc(S(=O)(=O)F)c2)sc1N` came in with a melting point of 168 to 170 °C.

`CCC(CC)Nc1c([N+](=O)[O-])cc(CC=NO)c(C(C)C)c1[N+](=O)[O-]` returned a melting point of 114 to 115 °C.

Turning to `CN(C)c1ccc(O)c(CNCCc2ccc(N=C(N)c3cccs3)cc2)c1`, the melting point lay in the range of 182 to 183 °C.

Compound `CC(=O)Nc1ccc(-n2nc(C(=O)NC(C)(C)C)c3c2C2CCC3C2)cc1` (stereo not drawn) showed a melting point of 122 to 124 °C.

`COc1cccc(NC(=O)Nc2ccc(N3CCN(C(=O)Nc4ccc(OCCO)cc4Cl)CC3)cc2)c1` yielded a melting point of 198 to 201 °C.

The compound `Fc1ccccc1C1=NCc2cnc(Cl)nc2-c2ccc(Cl)cc21` showed a melting point of 157 to 160 °C.

As to `COC(=O)c1ccccc1-c1nc(COc2ccc(C=O)cc2OC)c(C)o1`, the melting point was 129 to 130 °C.

In the case of `O=C(O)c1cn(-c2cccnc2)c2c(F)c(F)c(F)cc2c1=O`, the melting point fell in the range of 122 to 124 °C.

As for `O=C(c1ccccc1)c1cncc(Br)c1`, the melting point is 66 to 68 °C.

For the compound `Cc1ccc(-c2ccc3c(c2)C=C(C(=O)Nc2ccc(CCN4CCCCC4)cc2)CCO3)cc1`, the melting point was 201 to 202 °C.

Take `CSc1sc(-c2cn[nH]c2)c2c1C(=O)CC(C)(C)C2`: the melting point was in the range of 213 to 215 °C.

`CCOC(=O)C(C#N)=C(C)Nc1ccnc(-c2ccncc2)n1` had a melting point of 203 to 205 °C.

Regarding `CN1CCC(=O)C(C2c3ccccc3C=Cc3ccccc32)C1` (stereo not drawn), the melting point is 144 to 158 °C.

For `CCCOc1ccc([N+](=O)[O-])cc1[N+](=O)[O-]`, the melting point was 84 to 86 °C.

In the case of `COc1ccc(-c2ccc(C(=O)Nc3cc4ncc(CN5CCCC5)cc4cc3Cl)cc2)cc1`, the melting point was found to be 184 °C.

In the case of `COc1ccc2c(c1)CCC(NCC(=O)O)C2` (stereo not drawn), the melting point was in the range of 195 to 198 °C.

`CCCOc1ccc(-c2scc(-c3ccccc3)c2CC(=O)NC(=N)N)cc1` showed a melting point of 94 to 95 °C.

In turn, `NC(=O)c1cn(C(CO)CCc2cccc(C(F)(F)F)c2)cn1` (stereo not drawn) had a melting point of 103 to 106 °C.

`CCOc1ccc(-c2ccc3c(c2)C=C(C(=O)OC(C)(C)C)CCN3C)cc1` gave a melting point of 140 to 142 °C.

Consider `CC(C)(C)OC(=O)COC1CCN(C(=O)[C@]2(C)CCCN2C(=O)c2ccc(C#N)cc2)CC1`, for which the melting point was in the range of 180 to 182 °C.

In turn, `Cc1cc(-c2ccc(C#N)cc2)cn2cc(-c3ccc(C#N)cc3)nc12` returned a melting point of 283 to 285 °C.

Consider `CN(O)C(=O)NCCCCCCOc1ccc(-c2ccccc2)cc1`, for which the melting point lay within 148 to 150 °C.

On to `CCOC(=O)CCCn1c(Nc2c(C)nn(C)c2C)nc2c(Cl)ccc(C(CC)CC)c21`, for which the melting point is 177 to 178 °C.

On to `O=C1CCSc2c1ccc(Cl)c2Cl`, for which the melting point lay within 93 to 102 °C.

As for `CC(=O)c1ccc(-c2ccc(S)cc2)cc1`, the melting point was 126 to 128 °C.

The compound `COc1ccc2cnc(Nc3ccccc3)nc2c1C1CCCC1` returned a melting point of 187 to 188 °C.

Consider `COc1nc(N)nc2c1ncn2/C=C1\CC1(CO)CO`, for which the melting point lay within 179 to 180 °C.

Take `CC(C#CC1CCC1)N(O)C(N)=O` (stereo not drawn): the melting point fell in the range of 144 to 145 °C.

`O=C(O)[C@H](CCc1ccccc1)NS(=O)(=O)c1ccc2oc3ccccc3c2c1`: the melting point was in the range of 130 to 132 °C.

`CN(C)c1ccc(NC(=O)N(CC2CCC(CN(C(=O)Nc3ccc(N(C)C)cc3)C3CC4CCC3C4)CC2)C2CC3CCC2C3)cc1` (stereo not drawn) yielded a melting point of 188 to 191 °C.

`O=C(C1CCCCC1)N1CC(=O)N2CCOc3ccccc3C2C1` (stereo not drawn) had a melting point of 92 to 93 °C.

In turn, `COc1c(OCc2ccccc2)cc(C(=O)Cl)cc1OCc1ccccc1` returned a melting point of 124 to 127 °C.

`O=C1NC(=Cc2c(Cl)cccc2Cl)C(=O)C1=NO`: the melting point is 232 °C.

`CCCCCCCCCCCCCCC(O)(CCCCC(=O)O)CCCCC(=O)O` returned a melting point of 79 to 80 °C.

Turning to `CCCCCCCCCCCCCCCCNC(=O)c1cc(OCCSCC(=O)O)c2ccccc2c1O`, the melting point fell in the range of 91 to 93 °C.

`COc1cccc(NS(=O)(=O)c2sccc2C2OCCO2)c1` returned a melting point of 112 to 114 °C.

In the case of `CC(C)CN1C(=O)c2cnc(-c3ccccc3)nc2Nc2ccccc21`, the melting point lay in the range of 203 to 204 °C.

In turn, `Nc1ncccc1C(=O)NCC1CCN(C[C@H]2COc3ccc4[nH]ccc4c3O2)CC1` returned a melting point of 104 to 106 °C.

`C=CCOc1ccc2oc(C(=O)c3ccc(F)cc3)c(C)c2c1` gave a melting point of 80 to 82 °C.

Compound `OC(c1ccccc1)(C1CC1)C(c1cccc(Cl)c1)n1ccnc1` (stereo not drawn) yielded a melting point of 140 °C.

For the compound `C=C1CCCCCCCSC[C@@H](C(=O)O)NC1=O`, the melting point is 184 to 186 °C.

Compound `CCOC(=O)c1c(CCl)nc2cc(OC)c(OC)cc2c1-c1ccc(F)cc1` gave a melting point of 147 to 148 °C.

For the compound `NC(=O)[C@@H]1CCCc2cc(Sc3ccccc3)cc(F)c21`, the melting point was in the range of 167 to 168 °C.

Regarding `CN(C)c1ccc(C2(c3ccc(N(C)C)cc3N(C)C)OC(=O)c3ccccc32)c(N(C)C)c1`, the melting point fell in the range of 186 to 188 °C.

Regarding `CC1CCCC(C)(C)C1C(O)c1ccc(C(N)=NO)c(F)c1` (stereo not drawn), the melting point was 154 to 156 °C.

Compound `CCOC(=O)c1c(SC)sc2c(F)c(F)c(F)cc2c1=O` returned a melting point of 113 to 115 °C.

Compound `COc1cc2c(Oc3ccc4[nH]c(C)cc4c3)ncnc2cc1OCC1CCN(C)C(=O)C1` (stereo not drawn) displayed a melting point of 250 to 251 °C.

Turning to `CC1(C)Oc2ccc3nc(Cl)ccc3c2C(NCCc2ccccc2)C1O` (stereo not drawn), the melting point was 141 to 143 °C.

In the case of `COc1ccc(NC(=O)c2ccc(OC)c(C34CC5CC(CC(C5)C3)C4)c2)c([N+](=O)[O-])c1`, the melting point lay within 208 to 210 °C.
